Among the data in article PMC4138023, “Selective HDAC Inhibition for the Disruption of Latent HIV-1 Infection” (PLoS ONE, 2014) are IC50 values, retold here.

Common to all, as to assay: microfluidic mobility shift (LabChip), FAM-acetylated peptide substrate
Common to all, as to type: biochemical

The target of experiment [1] is T1, HDAC4 (Homo sapiens, UniProt P56524).
T1 construct: purified commercial enzyme from BPS Bioscience
The note with it: read-out: HDAC IC50 (μM) without preincubation / HDAC4. The text has this:
microfluidic mobility shift (LabChip), FAM-acetylated peptide substrate on HDAC4

Experiment [2] concerns the target T2, HDAC6 (Homo sapiens, UniProt Q9UBN7).
T2 construct: purified commercial enzyme from BPS Bioscience
T2 sequence (Q9UBN7 1-1215): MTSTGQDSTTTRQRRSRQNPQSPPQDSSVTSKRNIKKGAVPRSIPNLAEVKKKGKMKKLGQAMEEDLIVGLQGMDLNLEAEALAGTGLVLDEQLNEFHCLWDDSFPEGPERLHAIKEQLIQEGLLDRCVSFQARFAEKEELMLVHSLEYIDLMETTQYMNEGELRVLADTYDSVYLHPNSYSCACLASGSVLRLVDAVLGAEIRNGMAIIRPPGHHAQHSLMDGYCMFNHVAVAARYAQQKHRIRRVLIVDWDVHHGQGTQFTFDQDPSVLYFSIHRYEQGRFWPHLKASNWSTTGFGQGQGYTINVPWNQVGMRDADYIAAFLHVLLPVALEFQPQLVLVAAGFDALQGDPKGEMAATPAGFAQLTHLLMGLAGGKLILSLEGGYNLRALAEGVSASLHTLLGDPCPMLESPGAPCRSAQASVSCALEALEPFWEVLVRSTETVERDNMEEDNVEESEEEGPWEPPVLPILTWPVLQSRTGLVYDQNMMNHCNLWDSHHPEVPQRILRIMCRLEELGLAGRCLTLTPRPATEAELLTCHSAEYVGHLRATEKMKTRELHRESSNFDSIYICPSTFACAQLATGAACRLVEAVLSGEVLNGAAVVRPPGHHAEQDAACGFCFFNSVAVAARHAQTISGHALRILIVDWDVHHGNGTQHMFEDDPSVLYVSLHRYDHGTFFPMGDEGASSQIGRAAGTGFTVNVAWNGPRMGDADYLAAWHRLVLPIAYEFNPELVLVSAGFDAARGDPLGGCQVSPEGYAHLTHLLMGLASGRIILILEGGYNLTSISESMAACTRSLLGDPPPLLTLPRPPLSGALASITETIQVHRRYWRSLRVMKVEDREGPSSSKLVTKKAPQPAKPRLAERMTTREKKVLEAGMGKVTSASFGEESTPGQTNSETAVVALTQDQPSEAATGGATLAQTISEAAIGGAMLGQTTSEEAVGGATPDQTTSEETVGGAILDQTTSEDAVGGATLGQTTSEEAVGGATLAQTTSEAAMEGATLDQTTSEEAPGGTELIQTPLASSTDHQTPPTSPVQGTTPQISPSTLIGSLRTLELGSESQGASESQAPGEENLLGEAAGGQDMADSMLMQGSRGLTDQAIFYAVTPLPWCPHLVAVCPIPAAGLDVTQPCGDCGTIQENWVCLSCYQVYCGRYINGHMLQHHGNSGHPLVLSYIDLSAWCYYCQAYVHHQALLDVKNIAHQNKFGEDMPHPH
The note with it: read-out: HDAC IC50 (μM) without preincubation / HDAC4. The text has this: microfluidic mobility shift (LabChip), FAM-acetylated peptide substrate on HDAC6

The target of experiment [3] is T3, HDAC7 (Homo sapiens, UniProt Q8WUI4).
T3 construct: purified commercial enzyme from BPS Bioscience
T3 sequence (Q8WUI4 518-952 limits assumed): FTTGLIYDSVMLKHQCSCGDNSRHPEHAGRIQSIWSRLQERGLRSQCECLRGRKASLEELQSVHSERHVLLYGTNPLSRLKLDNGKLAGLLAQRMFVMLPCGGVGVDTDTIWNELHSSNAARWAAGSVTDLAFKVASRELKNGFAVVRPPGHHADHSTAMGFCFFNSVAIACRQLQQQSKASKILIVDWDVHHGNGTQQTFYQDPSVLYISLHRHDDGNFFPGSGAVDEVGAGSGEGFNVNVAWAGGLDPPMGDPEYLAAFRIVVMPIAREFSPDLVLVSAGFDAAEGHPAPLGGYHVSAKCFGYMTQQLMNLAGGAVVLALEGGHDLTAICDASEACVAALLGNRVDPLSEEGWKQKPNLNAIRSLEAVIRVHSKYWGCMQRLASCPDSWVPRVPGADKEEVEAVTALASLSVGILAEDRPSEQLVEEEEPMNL
The settings on record: read-out: HDAC IC50 (μM) without preincubation / HDAC4. The text has this: microfluidic mobility shift (LabChip), FAM-acetylated peptide substrate on HDAC7

The target in experiment [4] is T4, HDAC2 (Homo sapiens, UniProt Q92769).
T4 construct: purified commercial enzyme from BPS Bioscience
The note with it: without preincubation; […] min, room temperature, pH […] substrate; read-out: HDAC IC50 (μM) without preincubation / HDAC2. The text has this: microfluidic mobility shift (LabChip), FAM-acetylated peptide substrate on HDAC2

Experiment [5] concerns the target T5, HDAC3 (Homo sapiens, UniProt O15379).
T5 construct: purified commercial enzyme from BPS Bioscience; with Nuclear receptor corepressor 2
The settings on record: without preincubation; […] min, room temperature, pH […] substrate; read-out: HDAC IC50 (μM) without preincubation / HDAC3. The text has this:
microfluidic mobility shift (LabChip), FAM-acetylated peptide substrate on HDAC3

The target of experiment [6] is T6, HDAC9 (Homo sapiens, UniProt Q9UKV0).
T6 construct: purified commercial enzyme from BPS Bioscience
The note with it: read-out: HDAC IC50 (μM) without preincubation / HDAC9. The text has this:
microfluidic mobility shift (LabChip), FAM-acetylated peptide substrate on HDAC9

Experiment [7] addresses T7, HDAC1 (Homo sapiens, UniProt Q13547).
T7 construct: purified commercial enzyme from BPS Bioscience
The settings on record: without preincubation; […] min, room temperature, pH […] substrate; read-out: HDAC IC50 (μM) without preincubation / HDAC1. The text has this: microfluidic mobility shift (LabChip), FAM-acetylated peptide substrate on HDAC1

Experiment [8] addresses T8, HDAC5 (Homo sapiens, UniProt Q9UQL6).
T8 construct: purified commercial enzyme from BPS Bioscience
The settings on record: read-out: HDAC IC50 (μM) without preincubation / HDAC5. The text has this: microfluidic mobility shift (LabChip), FAM-acetylated peptide substrate on HDAC5

In experiment [9] the target is T9, HDAC8 (Homo sapiens, UniProt Q9BY41).
T9 construct: purified commercial enzyme from BPS Bioscience
T9 sequence (Q9BY41 1-377): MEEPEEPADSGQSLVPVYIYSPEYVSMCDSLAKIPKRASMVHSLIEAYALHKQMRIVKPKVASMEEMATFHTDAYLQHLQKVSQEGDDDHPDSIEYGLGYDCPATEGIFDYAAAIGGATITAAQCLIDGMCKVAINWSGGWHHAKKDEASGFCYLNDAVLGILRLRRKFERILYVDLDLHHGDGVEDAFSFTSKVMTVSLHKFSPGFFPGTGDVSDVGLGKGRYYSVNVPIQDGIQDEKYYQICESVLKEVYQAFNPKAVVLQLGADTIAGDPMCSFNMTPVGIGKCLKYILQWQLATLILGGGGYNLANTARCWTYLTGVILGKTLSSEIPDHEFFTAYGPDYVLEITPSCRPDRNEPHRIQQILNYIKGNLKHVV
The note with it: read-out: HDAC IC50 (μM) without preincubation / HDAC4. The text has this:
microfluidic mobility shift (LabChip), FAM-acetylated peptide substrate on HDAC8

T8 sequence (Q9UQL6 whole entry): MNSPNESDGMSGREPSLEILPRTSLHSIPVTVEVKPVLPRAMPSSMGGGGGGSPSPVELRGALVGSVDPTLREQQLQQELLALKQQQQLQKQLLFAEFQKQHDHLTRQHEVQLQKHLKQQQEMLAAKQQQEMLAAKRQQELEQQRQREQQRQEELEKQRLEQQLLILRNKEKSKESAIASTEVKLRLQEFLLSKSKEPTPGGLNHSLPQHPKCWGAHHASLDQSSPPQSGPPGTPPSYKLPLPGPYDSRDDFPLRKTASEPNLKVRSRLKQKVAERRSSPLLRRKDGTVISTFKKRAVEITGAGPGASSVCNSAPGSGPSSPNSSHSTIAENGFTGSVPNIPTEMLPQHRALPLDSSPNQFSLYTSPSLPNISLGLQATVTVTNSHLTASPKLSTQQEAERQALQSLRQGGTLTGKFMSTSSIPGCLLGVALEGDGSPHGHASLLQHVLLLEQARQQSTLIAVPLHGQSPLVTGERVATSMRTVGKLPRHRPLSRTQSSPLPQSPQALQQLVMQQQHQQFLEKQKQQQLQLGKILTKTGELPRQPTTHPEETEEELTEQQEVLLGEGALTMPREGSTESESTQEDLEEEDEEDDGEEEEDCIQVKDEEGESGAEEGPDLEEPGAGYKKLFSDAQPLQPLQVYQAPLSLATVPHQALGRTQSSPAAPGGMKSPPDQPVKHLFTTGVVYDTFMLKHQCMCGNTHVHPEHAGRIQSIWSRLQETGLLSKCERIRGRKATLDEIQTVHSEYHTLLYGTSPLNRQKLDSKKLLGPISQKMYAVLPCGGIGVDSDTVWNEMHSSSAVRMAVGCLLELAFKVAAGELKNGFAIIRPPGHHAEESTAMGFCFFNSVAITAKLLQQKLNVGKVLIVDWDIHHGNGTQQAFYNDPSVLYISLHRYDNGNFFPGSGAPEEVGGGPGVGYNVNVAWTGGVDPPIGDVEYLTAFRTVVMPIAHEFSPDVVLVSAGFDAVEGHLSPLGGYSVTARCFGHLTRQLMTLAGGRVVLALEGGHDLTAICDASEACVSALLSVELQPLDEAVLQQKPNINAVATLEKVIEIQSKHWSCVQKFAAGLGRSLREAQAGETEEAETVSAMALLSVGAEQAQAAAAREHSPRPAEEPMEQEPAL
T6 sequence (Q9UKV0 604-1011 limits assumed): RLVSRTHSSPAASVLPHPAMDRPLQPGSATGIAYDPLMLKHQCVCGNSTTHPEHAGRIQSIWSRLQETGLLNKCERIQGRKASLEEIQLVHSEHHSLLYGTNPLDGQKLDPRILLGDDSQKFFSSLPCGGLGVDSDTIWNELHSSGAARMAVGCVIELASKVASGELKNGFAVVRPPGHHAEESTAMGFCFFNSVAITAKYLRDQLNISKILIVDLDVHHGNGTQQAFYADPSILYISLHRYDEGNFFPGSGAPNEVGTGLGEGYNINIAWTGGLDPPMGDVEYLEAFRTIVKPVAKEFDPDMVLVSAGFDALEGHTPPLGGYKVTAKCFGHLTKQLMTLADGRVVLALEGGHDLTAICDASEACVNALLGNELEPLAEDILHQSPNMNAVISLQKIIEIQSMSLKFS
T4 sequence (Q92769 whole entry): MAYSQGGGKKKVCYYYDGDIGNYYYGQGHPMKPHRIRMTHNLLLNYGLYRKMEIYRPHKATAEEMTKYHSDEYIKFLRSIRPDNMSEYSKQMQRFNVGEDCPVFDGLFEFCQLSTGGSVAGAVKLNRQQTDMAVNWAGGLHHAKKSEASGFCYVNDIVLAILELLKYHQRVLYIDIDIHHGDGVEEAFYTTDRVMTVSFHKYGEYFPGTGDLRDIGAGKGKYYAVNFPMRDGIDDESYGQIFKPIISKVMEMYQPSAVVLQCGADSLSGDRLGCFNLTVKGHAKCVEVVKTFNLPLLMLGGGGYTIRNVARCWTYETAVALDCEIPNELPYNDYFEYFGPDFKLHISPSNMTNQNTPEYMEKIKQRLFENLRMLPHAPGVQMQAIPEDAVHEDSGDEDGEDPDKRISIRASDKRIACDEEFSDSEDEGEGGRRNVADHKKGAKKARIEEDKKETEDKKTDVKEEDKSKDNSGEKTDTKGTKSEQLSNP
T1 sequence (P56524 627-1084 limits assumed): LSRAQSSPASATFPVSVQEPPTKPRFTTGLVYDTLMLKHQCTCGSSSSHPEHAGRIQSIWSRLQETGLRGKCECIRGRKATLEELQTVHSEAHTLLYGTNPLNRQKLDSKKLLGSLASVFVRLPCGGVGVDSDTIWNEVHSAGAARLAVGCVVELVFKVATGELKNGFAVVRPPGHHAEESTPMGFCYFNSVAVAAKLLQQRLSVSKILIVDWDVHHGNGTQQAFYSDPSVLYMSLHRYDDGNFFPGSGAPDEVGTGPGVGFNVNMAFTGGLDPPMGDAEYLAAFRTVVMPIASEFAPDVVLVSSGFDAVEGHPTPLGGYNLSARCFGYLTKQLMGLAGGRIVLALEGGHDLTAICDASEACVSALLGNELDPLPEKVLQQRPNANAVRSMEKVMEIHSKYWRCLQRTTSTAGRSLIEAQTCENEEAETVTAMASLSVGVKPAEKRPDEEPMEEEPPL
T7 sequence (Q13547 whole entry): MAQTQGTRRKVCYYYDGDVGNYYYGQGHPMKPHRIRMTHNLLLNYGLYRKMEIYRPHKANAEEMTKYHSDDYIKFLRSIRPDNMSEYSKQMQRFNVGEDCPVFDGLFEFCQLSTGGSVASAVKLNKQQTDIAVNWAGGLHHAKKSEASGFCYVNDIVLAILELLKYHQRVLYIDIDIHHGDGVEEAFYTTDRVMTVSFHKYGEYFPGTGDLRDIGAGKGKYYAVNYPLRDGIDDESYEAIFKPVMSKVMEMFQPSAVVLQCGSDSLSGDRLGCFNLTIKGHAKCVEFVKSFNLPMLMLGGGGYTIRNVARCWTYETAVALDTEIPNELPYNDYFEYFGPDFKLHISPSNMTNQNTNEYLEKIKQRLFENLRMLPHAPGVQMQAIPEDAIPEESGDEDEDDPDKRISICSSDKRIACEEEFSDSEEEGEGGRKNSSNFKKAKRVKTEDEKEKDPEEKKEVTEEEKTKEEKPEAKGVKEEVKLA

`CC(=O)Nc1ccc(C(=O)Nc2ccc(F)cc2N)cc1` [BRD3308]: the IC50 is over 33 µM in experiment [1]; over 33 µM in experiment [2]; over 33 µM in experiment [3]; 1.34 µM in experiment [4]; 0.054 µM in experiment [5]; over 33 µM in [6]. For the same compound, the IC50 was 1.26 µM in [7], over 33 µM in [8] and over 33 µM in experiment [9].
